Results: patent US20090155241A1, “Prophylactic/therapeutic agent for cancer” (JAPANESE FOUNDATION FOR CANCER RESEARCH, priority 2005, published 2009)

What was measured:
SF268 cells = experiment: Cell growth inhibition in SF268 cells; assay type: cell-based, human; details: about 4 μM (1 to 4 μM), treated for 48 hours; FIG. 4C
Method: (§1) NCI-H23, DMS114, HCT-15, KM-12, SF268 and U251 cells, which are p53-mutated cancer cells, were incubated in RPMI-1640 medium containing 4 or 8 μM Triacsin c for 48 hours. On the other hand, human normal cell lines TIG108, TIG109, ASF4-1, CCD33Co and TIG114 cells were incubated in MEM containing 4 or 8 μM Triacsin c for 48 hours. After completion of the incubation, 20 μl of CellTiter 96AQueous One Solution Cell Proliferation Assay Kit (manufactured by Promega Corp.) was added and reacted for an hour. Absorbance was then measured at 490 nm.
(§2) In addition, the caspase activation as an index of apoptosis was examined.

SF268/ACS5 cells [1] = experiment: Caspase activation in ACS5-expressing SF268 cells; assay type: cell-based, human; details: with expression of ACS5; FIG. 4D
Method: (§3) In order to examine if the cell growth inhibitory effect by Triacsin c was induced by apoptosis, the caspase activation was measured as an index of the apoptosis induction using acetyl-Asp-Glu-Val-Asp-(4-methylcoumaryl-7-amide) as a substrate.
as §2

[2] = system: fatty acid metabolizing enzyme ACS; details: Biochem. Biophys. Acta, 921, 595-598, 1987; cited from earlier work
p53-mutated cancer cells = experiment: Caspase activation as index of apoptosis induction (Ac-DEVD-MCA substrate); assay type: cell-based, human; details: 8 μM, 30 hours, RPMI medium; FIG. 3B
Method: as §3

SF268/ACS5 cells [3] = experiment: Cell growth inhibition in ACS5-expressing SF268 cells; assay type: cell-based, human; details: FIG. 4C
Text: To examine if the p53-mutated cancer cell-selective apoptosis by Triacsin c was induced by ACS activity inhibition, cells stably expressing Triacsin c-resistant ACS isozyme ACS5 were established as follows. The retroviral vector pHa-ACS5—FLAG-IRES-DHFR constructed in EXAMPLE 4(1) and empty vector pHa-IRES-DHFR were introduced into mouse fibroblast PA317 using mammalian transfection kit (Stratagene) to give viral stock. The resulting viral stock was further infected into human glioma SF268 cells and selected with 100 ng/ml of methotrexate as a selective agent to give the stably expressing strain SF268/ACS5 and SF268/mock for control. The cell extract from each cell was analyzed by western blot using anti-FLAG-M2 antibody (Sigma) (and anti-tubulin antibody (Sigma) for control).
as §2

[4] = system: p53-mutated cancer cells (NCI-H23, DMS114, HCT-15, KM-12, SF268, U251); experiment: Cell growth inhibition, CellTiter 96 AQueous One, p53-mutated cancer cells; assay type: cell-based, human; details: 4 or 8 μM, 48 hours, RPMI-1640; FIG. 3A
Method: as §1
(§4) The results are shown by % based on absorbance in the absence of Triacsin c.

[5] = system: Human lung cancer NCI-H23; experiment: Growth inhibitory effect in nude mice bearing p53-mutated cancer; assay type: in vivo, BALB/cAJcl-nu nude mice
Method: In order to examine the p53-mutated cancer growth inhibitory effect by apoptosis induction via Triacsin c-induced ACS activity inhibition in vivo, a test for administering p53-mutated cancer-bearing nude mice was performed. Human lung cancer NCI-H23 was used as the p53-mutated cancer cell line and implanted subcutaneously into BALB/cAJcl-nu nude mice (9 weeks old). On day 0 when the tumor volume reached 50-150 mm^3, 40 μl (30 mg/kg/day) of Triacsin c was administered by intratumoral injection (n=5). Triacsin c was administered for 3 consecutive days on days 0, 1 and 2. For control group, 40 μl of saline was administered by the same dosing schedule (n=5). For evaluation of tumor volume, the length (L) and width (W) of the tumor were measured, and the tumor volume (TV) was calculated as TV=L×W×W/2. Relative tumor volume was determined as the value when a mean value of the tumor volume on day 0 in control group was made 1. Tumor growth was measured for 21 days after drug administration. Statistical significance was determined with a Student t test.

ACS = experiment: Intracellular ACS activity in cell extract ([14C]-palmitic acid); assay type: cell-based, human; details: 4 μM, 24 hours, FIG. 4B
Method: The ACS activity was assayed by the method of Banis, et al. (Biochem. Biophys. Acta, 348, 210-220, 1974). To the cell extract (100 μl) obtained by homogenization, 1.2 μmol magnesium chloride, 5 μmol ATP, 3 μmol potassium fluoride, 0.1 μmol coenzyme A, 3 μmol 2-mercaptoethanol, 0.03 μmol palmitic acid and 0.1 μCi [^14C]-palmitic acid (150 μl) were added and the mixture was reacted at 37° C. for 5 minutes. After the reaction was terminated by adding 2.25 ml of isopropanol-heptane-1M sulfuric acid (40:10:1), 1.5 ml of heptane and 1 ml of water were added and the upper layer was removed. The lower layer containing [^14C]-palmitoyl CoA produced after the reaction was washed twice with 2 ml of heptane-8 mg of palmitic acid, and the ^14C level was measured using a liquid scintillation counter.
The ACS activities of SF268/mock cells and SF268/ACS5 cells were assayed by the method described in EXAMPLE 4(3).

[6] = system: human normal cell lines TIG108, TIG109, ASF4-1, CCD33Co and TIG114; experiment: Cell growth inhibition, CellTiter 96 AQueous One, human normal cell lines; assay type: cell-based; details: 4 or 8 μM, 48 hours, MEM; FIG. 3A
Method: as §1, §4

[7] = system: SF268/ACS5 and SF268/mock cells; experiment: Cell viability after anticancer drug treatment, SF268/mock and SF268/ACS5; assay type: cell-based, human; details: 48 hours; etoposide 1, 3 or 10 µg/ml, 5-fluorouracil 30, 100 or 300 µg/ml; FIG. 6A
Method: Changes of anticancer drug sensitivity in cancer cells by expression of ACS5 were examined. After 1, 3 or 10 µg/ml of etoposide or 30, 100 or 300 µg/ml of 5-fluorouracil was added to SF268/ACS5 established in EXAMPLE 4(2), which are cells capable of stably and highly expressing ACS5, and SF268/mock cells for control, incubation was performed in RPMI-1640 medium for 48 hours. After adding 20 μl of CellTiter 96AQueous One Solution Cell Proliferation Assay Kit (manufactured by Promega) and reacting for an hour, the cell viability was determined by measuring absorbance at 490 nm and expressed by % based on the value when no etoposide was added or no 5-fluorouracil was added (FIG. 6A).

| SMILES | cell growth (SF268 cells) | caspase activation (SF268/ACS5 cells [1]) | inhibition activity against ACS [2] | caspase activation (p53-mutated cancer cells) | Triacsin c-induced cell growth inhibitory effect (SF268/ACS5 cells [3]) | cell growth inhibitory effect [4] | tumor volume versus control group ([5]; 30 mg/kg/day intratumoral injection, days 0, 1 and 2, measured for 21 days, p<0.05, FIG. 5) | weight loss ([5]; cancer-bearing nude mice, 30 mg/kg/day intratumoral, 3 consecutive days) | intracellular ACS activity (ACS; SF268/ACS5 cells (ACS5-overexpressed)) | intracellular ACS activity (ACS; SF268/mock cells) | cell growth inhibitory effect [6] | cell viability in SF268/ACS5 as compared to SF268/mock [7] | growth inhibitory effect (cell viability) [7] |
| --- | --- | --- | --- | --- | --- | --- | --- | --- | --- | --- | --- | --- | --- |
| CCCC=CCC=CC=CC=NN=NO [Triacsin c, 1-Hydroxy-3-undeca-2,4,7-triene-1-ylidenetriaz-1-ene] | strongly inhibited the growth | strongly counteracted | specific inhibition activity | strong activation of caspase | almost completely cancelled | potent cell growth inhibitory effect | significant tumor regression effect | any weight loss was not observed | any significant reduction of the ACS activity was not observed | markedly reduced | no cell growth inhibitory effect was observed | – | – |
| O=c1[nH]cc(F)c(=O)[nH]1 [5-fluorouracil] | – | – | – | – | – | – | – | – | – | – | – | significantly high cell viability | growth inhibitory effect was produced concentration-dependently |
| COc1cc([C@@H]2c3cc4c(cc3[C@@H](O[C@@H]3O[C@@H]5CO[C@@H](C)O[C@H]5[C@H](O)[C@H]3O)[C@H]3COC(=O)[C@H]23)OCO4)cc(OC)c1O [etoposide] | – | – | – | – | – | – | – | – | – | – | – | significantly high cell viability | growth inhibitory effect was produced concentration-dependently |
